# Read-outs that look alike come from different tables or passages of the source.
# Experiments:
# [1] = test system: hepatocytes
# Procedure: As described further below, in certain embodiments, the number of bright and/or punctate regions in the lysosomal marker image is used as an indication of phospholipidosis.
# An exemplary procedure for preparing hepatocyte cultures will now be described. Specifically, the procedure involves the use of primary rat hepatocytes as follows:
# 11. Twenty three thousand cells/well are plated in a 96 flat well plate pre-coated with collagen I (BD Biosciences, San Jose, Calif. or CellzDirect, Tucson, Ariz.). The plates are incubated at 37° C./5% CO2 for two hours. At the end of the two hour incubation, plating medium is aspirated and cold Hepatozyme medium containing 250 micrograms/ml of Matrigel (BD Biosciences) is added, and the plates are incubated overnight.
# The following example is a procedure for fixing and staining primary rat hepatocytes to visualize nuclei, lysotracker, and Alexa 647 nm succinimidyl ester reagent (A647SE). A647SE is used to segment individual hepatocytes within an image. • 1) At 24 hr after compound addition to cells, 50 ul of Hepatozyme medium (prewarmed to 37° C.) containing 187.5 nM of lysotracker dye is added to each well. Plates are placed back to incubator for 30 min, then 150 μl of fix solution (8% paraformaldehyde, in 1× PBS) and incubate at room temperature for 30 min. • 2) Aspirate the fix solution, and add 350 μl of wash buffer (1× PBS, 0.02% Triton X-100) to each well. Aspirate and dispense wash buffer 2 times. • 3) Aspirate off the wash buffer, and add 100 ul per well of A647SE mix: 0.5 μg/ml A647SE (stock 10 mg/ml) and 1:1000 dilution of Hoechst 33342 (stock 5 mg/ml) in wash buffer. Incubate at room temperature for one hour in the dark. • 4) Aspirate the staining solution, and add 350 μl of wash buffer (1× PBS, […]) to each well. Aspirate and dispense wash buffer 2 times. Leave the last wash buffer in the well. • 5) Seal the plate and store at room temperature in the dark prior to imaging.
# In certain embodiments, a stimulus response curve may be generated for a stimulus of interest. In certain embodiments, the stimulus response curve plots the feature or features used to characterize phospholipidosis (e.g., granularity or mean intensity) against concentrations of a stimulus.
# [2] = test system: hepatocytes; test: Cell death of hepatocytes treated with compound; format: cell-based; details: Rattus norvegicus, Hepatocyte, arrow in FIG. 5A
SMILES,"proportion of bright/punctate cells (LysoTracker images) ([1]; at several concentrations below EC50 of cell death, FIG. 2B, versus DMSO control)",IC50 [2],induction of phospholipidosis as concluded from the response curves [1],mean intensity of the LysoTracker marker (per-cell basis) versus concentration [1],proportion of bright/punctate cells (LysoTracker images) [1],total granularity versus concentration [1]
"C[C@H](CCC(=O)NCCS(=O)(=O)O)[C@H]1CC[C@H]2[C@@H]3CC[C@@H]4C[C@H](O)CC[C@]4(C)[C@H]3CC[C@]12C [Taurolithocholate, taurolithocholate]",decrease,–,–,–,–,–
CN(C)CCCN1c2ccccc2Sc2ccc(Cl)cc21 [chlorpromazine],–,25 µM,induced phospholipidosis,increases,increase,spikes

# Reference: US20070202487A1, “Assay for phospholipidosis” (Cytokinetics, Inc., A Delaware Corporation, priority 2006, published 2007)
